Patent US20240270751A1, “Pyrazolopyridinone Compounds” (BeiGene Ltd., priority 2021, published 2024)

Assays:
DGKζ = DGKζ (Homo sapiens (Human), UniProt Q13574); experiment: Biochemical DGK IC50 assay, DGKζ ADP-Glo assay; conditions: 0.5 nM enzyme, 140 μM ATP, 80 μM DAG; read-out: DGKζ ADP-Glo assay IC50
How it was run: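 ADP formation measured by ADP-Glo luminescence, with test compounds at final 1.55–10000 nM or 23.3–150000 nM. Enzyme: purified full-length human DGKζ from Sf9 insect cells; substrate: DAG/PS micelles in 25 mM HEPES pH 7.0, 0.5 mM EDTA, octyl glucoside.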

DGKα = DGKα (Homo sapiens (Human), UniProt P23743); experiment: Biochemical DGK IC50 assay, DGKα ADP-Glo assay; conditions: 7.5 nM enzyme, 140 μM ATP, 80 μM DAG
DGKα, sequence (P23743 whole entry): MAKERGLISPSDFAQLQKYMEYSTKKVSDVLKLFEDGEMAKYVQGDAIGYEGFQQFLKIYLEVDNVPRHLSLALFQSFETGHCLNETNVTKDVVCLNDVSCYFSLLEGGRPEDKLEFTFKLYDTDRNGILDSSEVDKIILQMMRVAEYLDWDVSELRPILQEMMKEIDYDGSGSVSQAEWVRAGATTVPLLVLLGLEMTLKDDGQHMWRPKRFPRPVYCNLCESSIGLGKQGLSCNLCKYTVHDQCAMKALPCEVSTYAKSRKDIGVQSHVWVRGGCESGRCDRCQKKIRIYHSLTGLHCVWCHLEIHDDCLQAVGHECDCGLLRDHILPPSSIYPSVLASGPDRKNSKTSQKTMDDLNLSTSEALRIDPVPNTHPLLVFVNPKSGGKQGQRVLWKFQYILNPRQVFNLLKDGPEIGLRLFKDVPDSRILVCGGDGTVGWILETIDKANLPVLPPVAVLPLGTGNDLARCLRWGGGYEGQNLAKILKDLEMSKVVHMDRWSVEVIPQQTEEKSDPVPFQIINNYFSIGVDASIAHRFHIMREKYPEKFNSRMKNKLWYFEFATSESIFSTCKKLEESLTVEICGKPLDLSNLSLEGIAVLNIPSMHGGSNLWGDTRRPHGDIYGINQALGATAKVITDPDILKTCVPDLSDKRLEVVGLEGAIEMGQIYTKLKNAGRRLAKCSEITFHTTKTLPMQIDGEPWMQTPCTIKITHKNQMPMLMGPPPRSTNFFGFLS
How it was run: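 Compounds at final 1.55˜10000 nM or 23.3˜150000 nM were tested against full-length DGKα. Substrate was lipid micelles of DAG and PS resuspended in 25 mM HEPES pH 7.0 with 0.5 mM EDTA and 160 mM octyl β-D-glucopyranoside. ADP formed was detected by ADP-Glo.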

DGKζ, sequence (Q13574 other isoform, or with tags, fused parts or gaps): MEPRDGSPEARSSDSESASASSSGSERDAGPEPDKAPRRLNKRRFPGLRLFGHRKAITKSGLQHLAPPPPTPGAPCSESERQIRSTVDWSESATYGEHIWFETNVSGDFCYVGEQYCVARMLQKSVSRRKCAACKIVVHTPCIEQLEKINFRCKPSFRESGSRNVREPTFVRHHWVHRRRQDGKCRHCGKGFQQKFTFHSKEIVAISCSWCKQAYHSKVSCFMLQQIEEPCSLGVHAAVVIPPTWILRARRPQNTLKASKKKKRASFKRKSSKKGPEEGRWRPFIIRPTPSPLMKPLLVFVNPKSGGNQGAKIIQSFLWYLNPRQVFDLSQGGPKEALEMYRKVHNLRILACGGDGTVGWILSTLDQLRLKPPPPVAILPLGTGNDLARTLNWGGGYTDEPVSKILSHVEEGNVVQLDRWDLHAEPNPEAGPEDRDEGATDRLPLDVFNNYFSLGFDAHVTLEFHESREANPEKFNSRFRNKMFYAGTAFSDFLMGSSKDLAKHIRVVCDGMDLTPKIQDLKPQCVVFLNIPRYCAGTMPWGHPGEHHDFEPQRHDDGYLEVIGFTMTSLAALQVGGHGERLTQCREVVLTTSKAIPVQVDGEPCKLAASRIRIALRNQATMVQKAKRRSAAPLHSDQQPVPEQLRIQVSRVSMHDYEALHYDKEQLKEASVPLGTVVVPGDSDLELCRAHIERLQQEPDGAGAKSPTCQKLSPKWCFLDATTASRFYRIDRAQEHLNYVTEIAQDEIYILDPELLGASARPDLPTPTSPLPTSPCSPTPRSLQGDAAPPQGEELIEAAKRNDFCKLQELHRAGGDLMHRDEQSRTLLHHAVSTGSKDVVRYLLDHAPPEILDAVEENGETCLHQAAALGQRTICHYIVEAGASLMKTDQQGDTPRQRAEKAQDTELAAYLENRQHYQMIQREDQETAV

IC50 (DGKζ) | IC50 (DGKα) | SMILES
0.001 µM | 0.999 µM | CC[C@@H]1CN(c2cc(=O)n(C)c3cn(CC#N)nc23)[C@@H](C)CN1C(C)c1ccc2nccnc2c1 (mixture of isomers) [Compound A97, 2-(7-((2S,5R)-5-ethyl-2-methyl-4-(1-(quinoxalin-6-yl)ethyl)piperazin-1-yl)-4-methyl-5-oxo-4,5-dihydro-2H-pyrazolo[4,3-b]pyridin-2-yl)acetonitrile]
0.189 µM | 0.082 µM | CC[C@H]1CN(C(C)c2ccc(OC(C)C)cn2)[C@H](CC)CN1c1cc(=O)n(C)c2cn(CC#N)nc12 (stereo partly shown) [Compound A140]
8.91 µM | > 150 µM | Cc1cnc2ccc(N(C)C3CC(C)N(c4cc(=O)n(C)c5cn(CC#N)nc45)CC3C)cc2n1 (stereo not shown) [Compound A298, 2-(7-(2,5-dimethyl-4-(methyl(3-methylquinoxalin-6-yl)amino)piperidin-1-yl)-4-methyl-5-oxo-4,5-dihydro-2H-pyrazolo[4,3-b]pyridin-2-yl)acetonitrile]
> 10 µM | > 10 µM | CC(c1ccc(F)cc1P(C)(C)=O)N1C[C@H](C)N(c2cc(=O)n(C)c3cn(CC#N)nc23)C[C@H]1C (stereo partly shown) [Compound A285]
7.11 µM | > 10 µM | CC[C@H]1CN(C(C)c2ccc(F)cc2C(F)(F)F)[C@H](CC)CN1c1cc(=O)n(C)c2c[nH]nc12 (single isomer, unassigned) [Compound A275a]
0.041 µM | 6.63 µM | CC(c1ccc2ncc(C(F)F)nc2c1)N1C[C@H](C)N(c2cc(=O)n(C)c3cn(CC#N)nc23)C[C@H]1C (stereo partly drawn) [Compound A311, 2-(7-((2S,5R)-4-(1-(3-(difluoromethyl)quinoxalin-6-yl)ethyl)-2,5-dimethylpiperazin-1-yl)-4-methyl-5-oxo-4,5-dihydro-2H-pyrazolo[4,3-b]pyridin-2-yl)acetonitrile]
0.138 µM | 0.009 µM | CC[C@H]1CN(C(C)c2ccc(C(F)(F)F)cn2)[C@H](CC)CN1c1cc(=O)n(C)c2cn(CC#N)nc12 (single isomer, unassigned) [Compound A348b]
1.77 µM | 4.38 µM | CC[C@H]1CN(C(C)c2ccc(F)cc2CO)[C@H](CC)CN1c1cc(=O)n(C)c2cn(CC#N)nc12 (stereo partly drawn) [Compound A152, 2-(7-((2S,5R)-2,5-diethyl-4-(1-(4-fluoro-2-(hydroxymethyl)phenyl)ethyl)piperazin-1-yl)-4-methyl-5-oxo-4,5-dihydro-2H-pyrazolo[4,3-b]pyridin-2-yl)acetonitrile]
0.2 µM | 0.13 µM | CC[C@H]1CN(C(C)c2ccn3ncnc3c2)[C@H](CC)CN1c1cc(=O)n(C)c2cn(CC#N)nc12 (stereo partly shown) [Compound A49]
3.1 µM | > 10 µM | CC[C@@H]1CN(c2c(C#N)c(=O)n(CC#N)c3cn(CC#N)nc23)[C@@H](C)CN1C(C)c1ccc2nccnc2c1 (stereo partly drawn) [Compound A189, 2,2′-(6-cyano-7-((2S,5R)-5-ethyl-2-methyl-4-(1-(quinoxalin-6-yl)ethyl)piperazin-1-yl)-5-oxo-2H-pyrazolo[4,3-b]pyridine-2,4(5H)-diyl)diacetonitrile]
0.173 µM | 0.094 µM | CC[C@H]1CN(C(C)c2ccc(OC)cc2)[C@H](CC)CN1c1cc(=O)n(C)c2cn(CC#N)nc12 (stereo partly shown) [Compound A377]
0.201 µM | 0.043 µM | CC[C@H]1CN(C(C)c2cc3ccccn3n2)[C@H](CC)CN1c1cc(=O)n(C)c2cn(CC#N)nc12 (stereo partly shown) [Compound A389]
0.216 µM | 1.09 µM | CC[C@@H]1CN(c2cc(=O)n(C)c3cn(CC)nc23)[C@@H](C)CN1C(C)c1ccc2nccnc2c1 (single isomer, unassigned) [Compound A221a]
> 10 µM | > 10 µM | CC[C@H]1CN(C(C)c2c(F)cc(F)cc2OC)[C@H](CC)CN1c1cc(=O)n(C)c2cn(CC#N)nc12 (single isomer, unassigned) [Compound A201b]
